Patent US20070032417A1, “Peptides and therapeutic uses thereof” (priority 2002, published 2007)
Like-named read-outs stand apart in the source and are kept apart here. *1 amine or outer side, *2 acyl side, *3 side chain or, on linkers, in order; H or OH if unused. Where a SMILES comes first, the peptide text is derived from it. Bridges are numbered along the chain shown (N, C = ends). [ ]: non-standard residue; d: D form. Hexamethylenediamine = C(CCCN[*:2])CCN[*:1]; NH(CH2)5NH = C(CCN[*:1])CCN[*:2]; Cit = NC(=O)NCCC[C@H](N)C(=O)O; X1 = O=C(CN[*:1])NCCN[*:2]

What was measured:
[1] = Circular dichroism, alpha-helical content of peptides; format: physicochemical; settings: 30% aqueous trifluoroethanol
Protocol: Circular dichroism spectra were obtained using a Jasco Model J-710 spetropolarimeter at 20° C. using the following parameters: path length, 2 mm; step resolution, 0.1 nm; speed, 20 nm/min; accumulation, 4; response, 1 second; bandwidth, 1.0 nm. The peptides were analysed at a concentration of 0.5 mg/mL in 30% aqueous TFE. The alpha-helical content of the peptides were determined by methods described in Yang et al (1986), involving comparisons of spectra with model helical peptides.

[2] = target: Bcl-2 ΔC22 (Homo sapiens, UniProt P10415); test: Competition assay using biotinylated Bim-BH3 peptide, Bcl-2 ΔC22; format: binding; settings: for IC50: competition with biotinylated Bim-BH3 peptide; for affinity for Bcl-2 and Bcl-xL over the unconstrained 12-mer, in words: compared to the unconstrained 12-mer
From the text: The results are shown below:

[3] = target: T1, GST tagged Bcl w delta C29 protein (Homo sapiens, UniProt Q92843); test: Alphascreen competition with Bim26mer, GST detection system; format: binding; settings: for change in binding affinity, in words / decrease in binding affinity: Bcl-w ΔC29, compared to the linear 16-mer
T1 sequence (Q92843 1-164 limits assumed): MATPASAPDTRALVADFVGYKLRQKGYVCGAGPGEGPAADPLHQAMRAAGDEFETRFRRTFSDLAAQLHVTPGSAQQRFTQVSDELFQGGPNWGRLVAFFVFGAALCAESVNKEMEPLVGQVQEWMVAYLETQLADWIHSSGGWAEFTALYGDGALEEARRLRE

[4] = target: T2, 6-His tagged Bcl w delta C10 protein (Homo sapiens, UniProt Q92843); test: Alphascreen competition with Bim26mer, Hexa-His detection system; format: binding; settings: competition with biotinylated Bim-BH3 peptide; read-out: IC50 (nM) Bcl-w ΔC10
T2 sequence (Q92843 1-183 limits assumed): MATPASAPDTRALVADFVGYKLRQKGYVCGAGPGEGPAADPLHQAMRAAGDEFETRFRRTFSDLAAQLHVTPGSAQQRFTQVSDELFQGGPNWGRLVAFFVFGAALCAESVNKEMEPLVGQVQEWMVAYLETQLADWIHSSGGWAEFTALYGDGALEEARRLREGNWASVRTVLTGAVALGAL
From the text: Alphascreen (Amplified Luminsecent Proximity Homogenous Assay) is a bead based technology which measures a biological interaction between molecules. The assay consists of two hydrogel coated beads which, when bought into close proximity by a binding interaction, allow a transfer of singlet oxygen from a donor bead to an acceptor bead.
Upon binding a photosensitiser in the donor bead converts ambient oxygen to a more excited singlet state. This singlet oxygen then diffuses across to react with a chemiluminescer in the acceptor bead. Fluorophores within the same bead are activated, resulting in the emission of light.
Screening of the conformationally constrained peptides was performed using the Hexa-His detection system. Non biotinylated peptides dissolved in DMSO were titrated into the assay which consisted of 6-His tagged Bcl w delta C10 protein (24 nM Final concentration) and Biotinylated Bim BH3-26 peptide, Biotin-[…] [SEQ ID NO: 40] (1.5 nM Final concentration). To this reaction mix 6His tagged (Nickel Chelate) acceptor beads and Streptavidin coated donor beads, both at 10 ug/ml Final concentration, were added.
Assay buffer contained 50 mM Hepes pH 7.4, 10 mM DTT, 100 mM NaCl, 0.05% Tween and 1 mg/ml BSA. Bead dilution buffer contained 50 mM Tris, pH 7.5, 0.01% Tween and 1 mg/ml BSA. The final DMSO concentration in the assay was 1%. Assays were performed in 384 well white Optiplates and analysed on the Perkin Elmer Fusion plate reader (Ex680, Em520-620 […]).

[5] = target: GST tagged Bcl w delta C29 protein (UniProt Q92843); test: AlphaScreen competition with biotinylated Bim BH3-26 peptide
[6] = competition with biotinylated Bim-BH3 peptide, 12-mers, Example 7, read-out: IC50 (nM) Bcl-w ΔC29
[7] = substituted 16-mers, Example 9, read-out: IC50 nM Bcl-w ΔC29
[8] = Puma and Bmf peptides, Example 10, read-out: IC50 nM Bcl-w ΔC29

CC[C@H](C)[C@H](NC(=O)[C@@H]1CCC(=O)NCCCCCNC(=O)CC[C@H](NC(C)=O)C(=O)N[C@@H]([C@@H](C)CC)C(=O)N[C@@H](C)C(=O)N[C@@H](CCC(N)=O)C(=O)N[C@@H](CCC(=O)O)C(=O)N[C@@H](CC(C)C)C(=O)N[C@@H](CCCNC(=N)N)C(=O)N1)C(=O)NCC(=O)N[C@@H](CC(=O)O)C(=O)N[C@@H](CCC(=O)O)C(=O)N[C@@H](Cc1ccccc1)C(N)=O [A, Ac-E-IAQELR-E-IGDEF-NH2] (Ac-EIAQELREIGDEF-NH2; linker 1-8 via NH(CH2)5NH)
% Helicity [1]: 33% | IC50 [2]: 26000 nM | IC50 [3, 6]: 1800 nM | IC50 [4]: 2600 nM

CC[C@H](C)[C@H](NC(C)=O)C(=O)N[C@@H](C)C(=O)N[C@@H](CCC(N)=O)C(=O)N[C@H]1CCC(=O)NCCCCCCNC(=O)CC[C@@H](C(=O)N[C@@H](Cc2ccccc2)C(N)=O)NC(=O)[C@H](CC(=O)O)NC(=O)CNC(=O)[C@H]([C@@H](C)CC)NC(=O)[C@H](CCCNC(=N)N)NC(=O)[C@H](CCCNC(=N)N)NC(=O)[C@H](CC(C)C)NC1=O [C, Ac-IAQ-E-LRRIGD-E-F-NH2] (Ac-IAQELRRIGDEF-NH2; linker 4-11 via Hexamethylenediamine)
% Helicity [1]: 39% | affinity for Bcl-2 and Bcl-xL over the unconstrained 12-mer, in words [2]: outstanding increases in affinity | IC50 [2]: 2600 nM | IC50 [3, 6]: 120 nM | IC50 [4]: 230 nM

CC[C@H](C)[C@H](NC(C)=O)C(=O)N[C@@H](C)C(=O)N[C@@H](CCC(N)=O)C(=O)N[C@H]1CCC(=O)NCC(=O)NCCNC(=O)CC[C@@H](C(=O)N[C@@H](Cc2ccccc2)C(N)=O)NC(=O)[C@H](CC(=O)O)NC(=O)CNC(=O)[C@H]([C@@H](C)CC)NC(=O)[C@H](CCCNC(=N)N)NC(=O)[C@H](CCCNC(=N)N)NC(=O)[C@H](CC(C)C)NC1=O [D] (Ac-IAQELRRIGDEF-NH2; linker 4-11 via X1)
% Helicity [1]: 16% | IC50 [2]: 6900 nM | IC50 [3, 6]: 160 nM | IC50 [4]: 40 nM

CC[C@H](C)[C@H](NC(C)=O)C(=O)N[C@@H](Cc1c[nH]c2ccccc12)C(=O)N[C@H](C(=O)N[C@@H](C)C(=O)N[C@@H](CCC(N)=O)C(=O)N[C@H]1CCC(=O)NCCCCCNC(=O)CC[C@@H](C(=O)N[C@@H](Cc2ccccc2)C(=O)N[C@@H](CC(N)=O)C(=O)N[C@@H](C)C(N)=O)NC(=O)[C@H](CC(=O)O)NC(=O)CNC(=O)[C@H]([C@@H](C)CC)NC(=O)[C@H](CCCNC(=N)N)NC(=O)[C@H](CCCNC(=N)N)NC(=O)[C@H](CC(C)C)NC1=O)[C@@H](C)CC [E] (Ac-IWIAQELRRIGDEFNA-NH2; linker 6-13 via NH(CH2)5NH)
IC50 ([3]; values repeated in text, read-out: binding of the constrained peptide to Bcl-w): 0.5 nM

CC[C@H](C)[C@H](NC(C)=O)C(=O)N[C@@H](C)C(=O)N[C@@H](CCC(N)=O)C(=O)N[C@H]1CCC(=O)NCCCCCNC(=O)CC[C@@H](C(=O)N[C@@H](Cc2ccccc2)C(N)=O)NC(=O)[C@H](CC(=O)O)NC(=O)CNC(=O)[C@H]([C@@H](C)CC)NC(=O)[C@H](CCCNC(=N)N)NC(=O)[C@H](CCCNC(=N)N)NC(=O)[C@H](CC(C)C)NC1=O [Peptide B, Acetyl-IAQ(E1)LRRIGD(E2)F-amide] (Ac-IAQELRRIGDEF-NH2; linker 4-11 via NH(CH2)5NH)
% Helicity [1]: 28% | affinity for Bcl-2 and Bcl-xL over the unconstrained 12-mer, in words [2]: outstanding increases in affinity | IC50 [2]: 290 nM | IC50 [3, 6]: 150 nM | IC50 [4]: 65 nM

CC[C@H](C)[C@H](NC(=O)[C@H](C)NC(=O)[C@H](CCC(N)=O)NC(C)=O)C(=O)N[C@@H](C)C(=O)N[C@@H](CCC(N)=O)C(=O)N[C@H]1CCC(=O)NCCCCCNC(=O)CC[C@@H](C(=O)N[C@@H](Cc2ccccc2)C(=O)N[C@@H](CC(N)=O)C(=O)N[C@@H](C)C(N)=O)NC(=O)[C@H](CC(=O)O)NC(=O)CNC(=O)[C@H]([C@@H](C)CC)NC(=O)[C@H](CCCNC(=N)N)NC(=O)[C@H](CCCNC(=N)N)NC(=O)[C@H](CC(C)C)NC1=O [Peptide G, Ac-QAIAQZLRRIGDZFNA-NH2] (Ac-QAIAQELRRIGDEFNA-NH2; linker 6-13 via NH(CH2)5NH)
IC50 [3]: 2.4 nM

CC[C@H](C)[C@H](NC(C)=O)C(=O)N[C@@H](Cc1c[nH]c2ccccc12)C(=O)N[C@H](C(=O)N[C@@H](C)C(=O)N[C@@H](CCC(N)=O)C(=O)N[C@@H](CCC(=O)O)C(=O)N[C@@H](CC(C)C)C(=O)N[C@@H](CCCNC(N)=O)C(=O)N[C@@H](CCCNC(N)=O)C(=O)N[C@H](C(=O)NCC(=O)N[C@@H](CC(=O)O)C(=O)N[C@@H](CCC(=O)O)C(=O)N[C@@H](Cc1ccccc1)C(=O)N[C@@H](CC(N)=O)C(=O)N[C@@H](C)C(N)=O)[C@@H](C)CC)[C@@H](C)CC [Peptide T] (Ac-IWIAQEL[Cit][Cit]IGDEFNA-NH2)
IC50 [3, 7]: 20 nM

Ac-AWIAQELRRIGDEFNA-NH2 [O]
change in binding affinity, in words [3]: drop in binding | IC50 [3, 7]: 22 nM

Ac-IAIAQELRRIGDEFNA-NH2 [P]
change in binding affinity, in words [3]: drop in binding | IC50 [3, 7]: 42 nM

Ac-IAQELRRIGDEF-NH2 [Linear 12mer, reference compound]
% Helicity [1]: 9% | IC50 [2]: 240000 nM | IC50 [3, 6]: 4700 nM | IC50 [4]: 870 nM

Ac-IFIAQELRRIGDEFNA-NH2 [N]
change in binding affinity, in words [3]: drop in binding | IC50 [3, 7]: 11 nM

Ac-IRIAQELRRIGDEFNA-NH2 [Q]
change in binding affinity, in words [3]: drop in binding | IC50 [3, 7]: 17 nM

Ac-IWAAQEARRAGDEANA-NH2 [M]
IC50 [3, 7]: 64000 nM

Ac-IWAAQELRRIGDEFNA-NH2 [Peptide I]
change in binding affinity, in words [3]: slight decrease in binding affinity | decrease in binding affinity [3]: 100 fold | IC50 [3, 7]: 360 nM

Ac-IWIAQEARRIGDEFNA-NH2 [Peptide J]
decrease in binding affinity [3]: about 1000 fold | IC50 [3, 7]: 3700 nM

Ac-IWIAQELRRAGDEFNA-NH2 [Peptide K]
decrease in binding affinity [3]: 3 fold | IC50 [3, 7]: 7.3 nM

Ac-IWIAQELRRIGDEANA-NH2 [Peptide L]
decrease in binding affinity [3]: 1,000 fold | IC50 [3, 7]: 3500 nM

Ac-IWIAQELRRIGDEFAA-NH2 [Peptide S]
change in binding affinity, in words [3]: only slight, if any, loss of binding affinity | IC50 [3, 7]: 3.3 nM

Ac-IWIAQELRRIGDEFAN-NH2 [Peptide R]
IC50 [3, 7]: 12 nM

Ac-IWIAQELRRIGDEFNA-NH2 [linear 16-mer, reference compound]
IC50 ([3]; competition with biotinylated BIM-BH3 peptide, 16-mers, Example 8, read-out: IC50 (nM) Bcl-w ΔC29): 2.5 nM

Ac-IWIAQELRRIGDEFNN-NH2 [Peptide U]
decrease in binding affinity [3]: two | IC50 [3, 7]: 5.8 nM

Ac-IWIAQQLRRIGDQFNA-NH2 [H]
IC50 [3, 7]: 3.3 nM

Ac-REIGAQLRRMADDLNA-NH2 [Puma]
IC50 [3, 8]: 52 nM

Ac-VQIARKLQAIADQFHR-NH2 [Bmf]
IC50 [3, 8]: 0.25 nM

Ac-IWAAQELRRIGDEFNA-NH2 [Peptide I (linear), Ac-…-NH2]
fold decrease in binding affinity (against the linear 16-mer) [5]: 100 fold

Ac-IWIAQEARRIGDEFNA-NH2 [Peptide J (linear), Ac-…-NH2]
fold decrease in affinity (against the linear 16-mer) [5]: 1000 fold

Ac-IWIAQELRRAGDEFNA-NH2 [Peptide K (linear), Ac-…-NH2]
fold decrease in affinity (against the linear 16-mer) [5]: 3 fold

Ac-IWIAQELRRIGDEANA-NH2 [Peptide L (linear), Ac-…-NH2]
fold decrease in affinity (against the linear 16-mer) [5]: 1000 fold

Ac-IWAAQEARRAGDEANA-NH2 [Peptide M (linear), Ac-…-NH2]
fold decrease in binding affinity (against the linear 16-mer) [5]: 25000 fold

Ac-IWIAQELRRIGDEFNN-NH2 [Peptide U (linear), Ac-…-NH2]
fold loss of binding affinity (against the linear 16-mer) [5]: 2 fold
